The target of one experiment is AM2 S31N (serine→asparagine mutation at residue 31 in the M2 protein) (Influenza A virus, UniProt P0DOF5, S31N). The class given is cell-based, influenza virus A/Udorn/72.
Details: not given
In the case of `c1nc(CNC23CC4CC(CC(C4)C2)C3)no1` [Example 73a, Adamantan-1-yl-[1,2,4]oxadiazol-3-ylmethyl-amine], the “S31N OOcyte Inhibition at 100 uM (%)” value was “A (key: (A)=31-95%; (B)=0-30%)”.

As for `CC(C)c1csc(CNC23CC4CC(CC(C4)C2)C3)n1` [Example 84a, N-((4-isopropylthiazol-2-yl)methyl)adamantan-1-amine], the “S31N OOcyte Inhibition at 100 uM (%)” value is recorded as “B (key: (A)=31-95%; (B)=0-30%)”.

With `CC(C)n1cc(CNC23CC4CC(CC(C4)C2)C3)cn1` [Example 85a, N-((1-isopropyl-1H-pyrazol-4-yl)methyl)adamantan-1-amine], the “S31N OOcyte Inhibition at 100 uM (%)” value is reported as “B (key: (A)=31-95%; (B)=0-30%)”.

As for `CSc1ccc(CNC23CC4CC(CC(C4)C2)C3)s1` [Example 90a], the “S31N OOcyte Inhibition at 100 uM (%)” value was “A (key: (A)=31-95%; (B)=0-30%)”.

As to `Ic1ccc(CNC23CC4CC(CC(C4)C2)C3)s1` [Example 91a, N-((5-Iodothiophen-2-yl)methyl)adamantan-1-amine], the “S31N OOcyte Inhibition at 100 uM (%)” value is “A (key: (A)=31-95%; (B)=0-30%)”.

For the compound `Nc1ncc(CNC23CC4CC(CC(C4)C2)C3)s1` [Example 93a, 5-((adamantan-1-ylamino)methyl)thiazol-2-amine], the “S31N OOcyte Inhibition at 100 uM (%)” value is “B (key: (A)=31-95%; (B)=0-30%)”.

As to `Cc1cc(CNC23CC4CC(CC(C4)C2)C3)no1` [Example 95a, N-((5-methylisoxazol-3-yl)methyl)adamantan-1-amine], the “S31N OOcyte Inhibition at 100 uM (%)” value was “A (key: (A)=31-95%; (B)=0-30%)”.

Take `Cc1nc(CNC23CC4CC(CC(C4)C2)C3)no1` [Example 96a, N-((5-methyl-1,2,4-oxadiazol-3-yl)methyl)adamantan-1-amine]: the “S31N OOcyte Inhibition at 100 uM (%)” value is given as “A (key: (A)=31-95%; (B)=0-30%)”.

In the case of `CC(C)c1nc(CNC23CC4CC(CC(C4)C2)C3)no1` [Example 102a, N-((5-isopropyl-1,2,4-oxadiazol-3-yl)methyl)adamantan-1-amine], the “S31N OOcyte Inhibition at 100 uM (%)” value is reported as “A (key: (A)=31-95%; (B)=0-30%)”.

In the case of `CC(C)(C)c1nc(CNC23CC4CC(CC(C4)C2)C3)no1` [Example 103a, N-((5-(tert-butyl)-1,2,4-oxadiazol-3-yl)methyl)adamantan-1-amine], the “S31N OOcyte Inhibition at 100 uM (%)” value is “A (key: (A)=31-95%; (B)=0-30%)”.

Regarding `c1c(CNC23CC4CC(CC(C4)C2)C3)noc1CN1CCOCC1` [Example 106a, N-((5-(morpholinomethyl)isoxazol-3-yl)methyl)adamantan-1-amine], the “S31N OOcyte Inhibition at 100 uM (%)” value is recorded as “B (key: (A)=31-95%; (B)=0-30%)”.

Turning to `c1c(CNC23CC4CC(CC(C4)C2)C3)noc1C1CC1` [Example 107a, N-((5-cyclopropylisoxazol-3-yl)methyl)adamantan-1-amine], the “S31N OOcyte Inhibition at 100 uM (%)” value is recorded as “A (key: (A)=31-95%; (B)=0-30%)”.

In the case of `c1cc(C2CC2)sc1CNC12CC3CC(CC(C3)C1)C2` [Example 108a, N-((5-cyclopropylthiophen-2-yl)methyl)adamantan-1-amine], the “S31N OOcyte Inhibition at 100 uM (%)” value was “A (key: (A)=31-95%; (B)=0-30%)”.

Take `C1CCC(c2nc(CNC34CC5CC(CC(C5)C3)C4)no2)C1` [Example 109a, N-((5-cyclopentyl-1,2,4-oxadiazol-3-yl)methyl)adamantan-1-amine]: the “S31N OOcyte Inhibition at 100 uM (%)” value was “A (key: (A)=31-95%; (B)=0-30%)”.

In the case of `c1ccc(-c2nc(CNC34CC5CC(CC(C5)C3)C4)c[nH]2)cc1` [Example 114a, N-((2-phenyl-1H-imidazol-4-yl)methyl)adamantan-1-amine], the “S31N OOcyte Inhibition at 100 uM (%)” value is given as “B (key: (A)=31-95%; (B)=0-30%)”.

Take `Fc1ccc(-c2cc(CNC34CC5CC(CC(C5)C3)C4)no2)cc1` [Example 118a, N-((5-(4-fluorophenyl)isoxazol-3-yl)methyl)adamantan-1-amine]: the “S31N OOcyte Inhibition at 100 uM (%)” value is on record as “A (key: (A)=31-95%; (B)=0-30%)”.

With `Clc1ccc(-c2cc(CNC34CC5CC(CC(C5)C3)C4)no2)cc1` [Example 119a, N-((5-(4-chlorophenyl)isoxazol-3-yl)methyl)adamantan-1-amine], the “S31N OOcyte Inhibition at 100 uM (%)” value is on record as “A (key: (A)=31-95%; (B)=0-30%)”.

Take `Cc1ccc(-c2cc(CNC34CC5CC(CC(C5)C3)C4)no2)cc1` [Example 120a, N-((5-(p-tolyl)isoxazol-3-yl)methyl)adamantan-1-amine]: the “S31N OOcyte Inhibition at 100 uM (%)” value is “A (key: (A)=31-95%; (B)=0-30%)”.

`COc1ccc(-c2cc(CNC34CC5CC(CC(C5)C3)C4)on2)cc1` [Example 122a, N-((3-(4-methoxyphenyl)isoxazol-5-yl)methyl)adamantan-1-amine]: the “S31N OOcyte Inhibition at 100 uM (%)” value is “A (key: (A)=31-95%; (B)=0-30%)”.

On to `c1ccc(-c2noc(CNC34CC5CC(CC(C5)C3)C4)n2)cc1` [Example 123a, N-((3-phenyl-1,2,4-oxadiazol-5-yl)methyl)adamantan-1-amine], for which the “S31N OOcyte Inhibition at 100 uM (%)” value is “A (key: (A)=31-95%; (B)=0-30%)”.

`CC(C)(C)c1ccc(-c2noc(CNC34CC5CC(CC(C5)C3)C4)n2)cc1` [Example 124a, N-((3-(4-(tert-butyl)phenyl)-1,2,4-oxadiazol-5-yl)methyl)adamantan-1-amine]: the “S31N OOcyte Inhibition at 100 uM (%)” value is given as “B (key: (A)=31-95%; (B)=0-30%)”.

In the case of `FC(F)(F)c1cccc(-c2nc(CNC34CC5CC(CC(C5)C3)C4)no2)c1` [Example 125a, N-((5-(3-(trifluoromethyl)phenyl)-1,2,4-oxadiazol-3-yl)methyl)adamantan-1-amine], the “S31N OOcyte Inhibition at 100 uM (%)” value was “A (key: (A)=31-95%; (B)=0-30%)”.

Consider `COc1ccc(-c2nc(CNC34CC5CC(CC(C5)C3)C4)no2)cc1` [Example 126a, N-((5-(4-methoxyphenyl)-1,2,4-oxadiazol-3-yl)methyl)adamantan-1-amine], for which the “S31N OOcyte Inhibition at 100 uM (%)” value is recorded as “A (key: (A)=31-95%; (B)=0-30%)”.

For the compound `Cc1ccc(-c2nc(CNC34CC5CC(CC(C5)C3)C4)no2)cc1` [Example 128a, N-((5-(p-tolyl)-1,2,4-oxadiazol-3-yl)methyl)adamantan-1-amine], the “S31N OOcyte Inhibition at 100 uM (%)” value is “A (key: (A)=31-95%; (B)=0-30%)”.

As to `FC(F)(F)c1ccc(-c2nc(CNC34CC5CC(CC(C5)C3)C4)no2)cc1` [Example 129a, N-((5-(4-(trifluoromethyl)phenyl)-1,2,4-oxadiazol-3-yl)methyl)adamantan-1-amine], the “S31N OOcyte Inhibition at 100 uM (%)” value is recorded as “A (key: (A)=31-95%; (B)=0-30%)”.

As to `FC(F)(F)c1cccc(-c2nc(CNC34CC5CC(CC(C5)C3)C4)no2)c1` [Example 130a, N-((5-(3-(trifluoromethyl)phenyl)-1,2,4-oxadiazol-3-yl)methyl)adamantan-1-amine], the “S31N OOcyte Inhibition at 100 uM (%)” value is recorded as “A (key: (A)=31-95%; (B)=0-30%)”.

For `c1ccc(-c2nc(CNC34CC5CC(CC(C5)C3)C4)no2)cc1` [Example 131a, N-((5-phenyl-1,2,4-oxadiazol-3-yl)methyl)adamantan-1-amine], the “S31N OOcyte Inhibition at 100 uM (%)” value was “A (key: (A)=31-95%; (B)=0-30%)”.

The same experiment, now with this note: pH 5.5.
Turning to `C[Si](C)(C)c1ccc(CNC23CC4CC(CC(C4)C2)C3)s1` [Example 75b, Adamantan-1-yl-(5-trimethylsilanyl-thiophen-2-ylmethyl)-amine], the “S31N OOcyte Inhibition at 100 uM (%)” value is on record as “A (key: (A)=31-95%; (B)=0-30%)”.

As for `CSc1ccccc1-c1cnc(CNC23CC4CC(CC(C4)C2)C3)s1` [Example 76b, Adamantan-1-yl-[5-(2-methylsulfanyl-phenyl)-thiazol-2-ylmethyl]-amine], the “S31N OOcyte Inhibition at 100 uM (%)” value is “A (key: (A)=31-95%; (B)=0-30%)”.

For `c1cc2nc(CNC34CC5CC(CC(C5)C3)C4)sc2s1` [Example 77b, Adamantan-1-yl-thieno[3,2-d]thiazol-2-ylmethyl-amine], the “S31N OOcyte Inhibition at 100 uM (%)” value is reported as “A (key: (A)=31-95%; (B)=0-30%)”.

Consider `c1cc2[nH]c(CNC34CC5CC(CC(C5)C3)C4)cc2o1` [Example 78b, Adamantan-1-yl-(4H-furo[3,2-b]pyrrol-5-ylmethyl)-amine], for which the “S31N OOcyte Inhibition at 100 uM (%)” value was “A (key: (A)=31-95%; (B)=0-30%)”.

For the compound `COc1ccc2nc(CNC34CC5CC(CC(C5)C3)C4)[nH]c2c1` [Example 79b, Adamantan-1-yl-(6-methoxy-1H-benzoimidazol-2-ylmethyl)-amine], the “S31N OOcyte Inhibition at 100 uM (%)” value was “A (key: (A)=31-95%; (B)=0-30%)”.

For the compound `c1cnc2[nH]c(CNC34CC5CC(CC(C5)C3)C4)nc2c1` [Example 82b, N-((3H-imidazo[4,5-b]pyridin-2-yl)methyl)adamantan-1-amine], the “S31N OOcyte Inhibition at 100 uM (%)” value was “A (key: (A)=31-95%; (B)=0-30%)”.

`OC12CC3CC(C1)CC(NCc1noc(-c4ccccc4)n1)(C3)C2` [Example 84b, (1s,3r,5R,7S)-3-(((5-phenyl-1,2,4-oxadiazol-3-yl)methyl)amino)adamantan-1-61]: the “S31N OOcyte Inhibition at 100 uM (%)” value is on record as “A (key: (A)=31-95%; (B)=0-30%)”.

Consider `CC(C)c1cc(CNC23CC4CC(CC(O)(C4)C2)C3)no1` [Example 85b, (1s,3r,5R,7S)-3-(((5-isopropylisoxazol-3-yl)methyl)amino)adamantan-1-61], for which the “S31N OOcyte Inhibition at 100 uM (%)” value is “A (key: (A)=31-95%; (B)=0-30%)”.

As to `OC12CC3CC(C1)CC(NCc1noc(C4CCCCC4)n1)(C3)C2` [Example 86b, (1s,3r,5R,7S)-3-(((5-cyclohexyl-1,2,4-oxadiazol-3-yl)methyl)amino)adamantan-1-ol], the “S31N OOcyte Inhibition at 100 uM (%)” value is “A (key: (A)=31-95%; (B)=0-30%)”.

With `O=C(CNC12CC3CC(CC(C3)C1)C2)c1cccs1` [Example 87b, 2-(adamantan-1-ylamino)-1-(thiophen-2-yl)ethanone], the “S31N OOcyte Inhibition at 100 uM (%)” value is on record as “B (key: (A)=31-95%; (B)=0-30%)”.

Regarding `C(#Cc1cccs1)CNC12CC3CC(CC(C3)C1)C2` [Example 88b], the “S31N OOcyte Inhibition at 100 uM (%)” value is listed as “A (key: (A)=31-95%; (B)=0-30%)”.

As for `CSc1ccc(-c2cc(CNC34CC5CC(CC3C5)C4)no2)cc1` [Example 90b, (2R,3as,5S,6as)-N-((5-(4-(methylthio)phenyl)isoxazol-3-yl)methyl)octahydro-2,5-methanopentalen-3a-amine], the “S31N OOcyte Inhibition at 100 uM (%)” value is reported as “A (key: (A)=31-95%; (B)=0-30%)”.

For `CSc1ccc(-c2cc(CNC34CC5CCC(CC(C5)C3)C4)no2)cc1` [Example 91b, (1S,3R,8S)—N-((5-(4-(methylthio)phenyl)isoxazol-3-yl)methyl)tricyclo[4.3.1.13,8]undecan-1-amine], the “S31N OOcyte Inhibition at 100 uM (%)” value was “A (key: (A)=31-95%; (B)=0-30%)”.

Values taken from patent US9884832B2 (priority 2011, dated 2018).
